{"source": "patent US8598183B2", "about": "“Solid state forms of a potent HCV inhibitor” (Boehringer Ingelheim International GmbH, priority 2010, dated 2013)", "key": {"[1]": {"test": "Powder dissolution of triturated mixtures in capsules in 500 mL pH 6.8 buffer", "assay_type": "physicochemical", "conditions": "for % Release, Average of n = 2 (range) / % Release, average / % Release / % Release, average (range): capsule; for % Release, average: 200 mg drug + Meglumine 100 mg; for % Release: 200 mg drug + Pluronic acid 100 mg, n = 1", "excerpt": "One class of solubilizer excipients, basifiers, act by increasing the microenvironment pH and thereby increasing the local solubility of the drug (for a drug containing an acid moiety). Another class of solubilizer excipients, surfactants, also act by increasing the local solubility of the drug. […] For example, an enhancement in dissolution was obtained when surfactants, for example, sodium lauryl sulfate or Vitamin E TPGS, were used in combination with basifiers, for example, L-arginine, meglumine or L-lysine. […] For example, only 1% drug release was obtained when Compound (1) sodium salt crystalline was present. The % drug release was 54% at 60 minutes in the presence of 100 mg Arginine alone and 59% in the presence of Sodium lauryl sulfate alone (Table 2). However, in presence of 100 mg of Arginine along with 100 mg of Sodium lauryl sulfate, the % drug release increased to 93% at 60 minutes (Table 3) indicating enhancement in dissolution when both surfactant and basifier were used in combination."}, "HCV infection": {"system": "HCV infection", "test": "Human clinical trials in HCV-infected patients", "assay_type": "in vivo"}}}
{"compound": "Cn1c(C2(NC(=O)c3ccc4c(C5CCCC5)c(-c5ncc(Br)cn5)n(C)c4c3)CCC2)nc2ccc(/C=C/C(=O)[O-])cc21.[Na+]", "note": "[Compound (1) sodium salt]", "values": [{"measurement": "% Release, Average of n = 2 (range)", "setting": "[1]; 200 mg drug + Lysine + SDS (100 mg + 100 mg), 90 min", "value": "85 (84-85) %"}, {"measurement": "% Release, Average of n = 2 (range)", "setting": "[1]; 200 mg drug + Lysine + VitE TPGS (40 mg + 20 mg), 15 min", "value": "37 (33-41) %"}, {"measurement": "% Release, Average of n = 2 (range)", "setting": "[1]; 200 mg drug + Lysine + VitE TPGS (40 mg + 20 mg), 30 min", "value": "69 (69-70) %"}, {"measurement": "% Release, Average of n = 2 (range)", "setting": "[1]; 200 mg drug + Lysine + VitE TPGS (40 mg + 20 mg), 60 min", "value": "71 (70-72) %"}, {"measurement": "% Release, Average of n = 2 (range)", "setting": "[1]; 200 mg drug + Lysine + VitE TPGS (100 mg + 100 mg), 15 min", "value": "42 (29-55) %"}, {"measurement": "% Release, Average of n = 2 (range)", "setting": "[1]; 200 mg drug + Lysine + VitE TPGS (100 mg + 100 mg), 30 min", "value": "79 (77-81) %"}, {"measurement": "% Release, Average of n = 2 (range)", "setting": "[1]; 200 mg drug + Lysine + VitE TPGS (100 mg + 100 mg), 60 min", "value": "83 (82-83) %"}, {"measurement": "% Release, Average of n = 2 (range)", "setting": "[1]; 200 mg drug + Lysine + VitE TPGS (100 mg + 100 mg), 90 min", "value": "81 (81-82) %"}, {"measurement": "% Release, average", "setting": "[1]; 90 (infinity), n = 2", "value": 49, "unit": "%"}, {"measurement": "% Release, average", "setting": "[1]; 15 min, n = 2", "value": 47, "unit": "%"}, {"measurement": "% Release, average", "setting": "[1]; 30 min, n = 2", "value": 48, "unit": "%"}, {"measurement": "% Release, average", "setting": "[1]; 60 min, n = 2", "value": 48, "unit": "%"}, {"measurement": "% Release, Average of n = 2 (range)", "setting": "[1]; 200 mg drug + Meglumine + SDS (40 mg + 20 mg), 15 min", "value": "66 (61-71) %"}, {"measurement": "% Release, Average of n = 2 (range)", "setting": "[1]; 200 mg drug + Meglumine + SDS (40 mg + 20 mg), 30 min", "value": "73 (71-75) %"}, {"measurement": "% Release, Average of n = 2 (range)", "setting": "[1]; 200 mg drug + Meglumine + SDS (40 mg + 20 mg), 60 min", "value": "70 (69-71) %"}, {"measurement": "% Release, Average of n = 2 (range)", "setting": "[1]; 200 mg drug + Meglumine + SDS (40 mg + 20 mg), 90 min", "value": "68 (67-69) %"}, {"measurement": "% Release, Average of n = 2 (range)", "setting": "[1]; 200 mg drug + Meglumine + SDS (100 mg + 100 mg), 15 min", "value": "81 (79-83) %"}, {"measurement": "% Release, Average of n = 2 (range)", "setting": "[1]; 200 mg drug + Meglumine + SDS (100 mg + 100 mg), 30 min", "value": "87 (86-88) %"}, {"measurement": "% Release, Average of n = 2 (range)", "setting": "[1]; 200 mg drug + Meglumine + SDS (100 mg + 100 mg), 60 min", "value": "83 (80-87) %"}, {"measurement": "% Release, Average of n = 2 (range)", "setting": "[1]; 200 mg drug + Meglumine + SDS (100 mg + 100 mg), 90 min", "value": "86 (85-87) %"}, {"measurement": "% Release, Average of n = 2 (range)", "setting": "[1]; 200 mg drug + Meglumine + VitE TPGS (40 mg + 20 mg), 15 min", "value": "52 (33-70) %"}, {"measurement": "% Release, Average of n = 2 (range)", "setting": "[1]; 200 mg drug + Meglumine + VitE TPGS (40 mg + 20 mg), 30 min", "value": "73 (73-73) %"}, {"measurement": "% Release, Average of n = 2 (range)", "setting": "[1]; 200 mg drug + Meglumine + VitE TPGS (40 mg + 20 mg), 60 min", "value": "73 (73-74) %"}, {"measurement": "% Release, Average of n = 2 (range)", "setting": "[1]; 200 mg drug + Meglumine + VitE TPGS (40 mg + 20 mg), 90 min", "value": "71 (70-72) %"}, {"measurement": "% Release, Average of n = 2 (range)", "setting": "[1]; 200 mg drug + Meglumine + VitE TPGS (100 mg + 100 mg), 15 min", "value": "81 (81-81) %"}, {"measurement": "% Release, Average of n = 2 (range)", "setting": "[1]; 200 mg drug + Meglumine + VitE TPGS (100 mg + 100 mg), 30 min", "value": "85 (84-86) %"}, {"measurement": "% Release, Average of n = 2 (range)", "setting": "[1]; 200 mg drug + Meglumine + VitE TPGS (100 mg + 100 mg), 60 min", "value": "86 (84-87) %"}, {"measurement": "% Release, Average of n = 2 (range)", "setting": "[1]; 200 mg drug + Meglumine + VitE TPGS (100 mg + 100 mg), 90 min", "value": "82 (80-84) %"}, {"measurement": "% Release", "setting": "[1]; 90 (infinity)", "value": 13, "unit": "%"}, {"measurement": "% Release", "setting": "[1]; 15 min", "value": 3, "unit": "%"}, {"measurement": "% Release", "setting": "[1]; 30 min", "value": 12, "unit": "%"}, {"measurement": "% Release", "setting": "[1]; 60 min", "value": 12, "unit": "%"}, {"measurement": "% Release, average (range)", "setting": "[1]; 200 mg drug + SDS 100 mg, 90 (infinity), n = 2", "value": "49 (45-53) %"}, {"measurement": "% Release, average (range)", "setting": "[1]; 200 mg drug + SDS 100 mg, 15 min, n = 2", "value": "57 (56-57) %"}, {"measurement": "% Release, average (range)", "setting": "[1]; 200 mg drug + SDS 100 mg, 30 min, n = 2", "value": "61 (60-63) %"}, {"measurement": "% Release, average (range)", "setting": "[1]; 200 mg drug + SDS 100 mg, 60 min, n = 2, listed as Compound (1) Na Salt", "value": "59 (58-60) %"}, {"measurement": "% Release, average (range)", "setting": "[1]; 200 mg drug + SDS 100 mg, 60 min, n = 2, listed as Compound (1) sodium salt crystalline", "value": 59, "unit": "%"}, {"measurement": "% Release, average (range)", "setting": "[1]; 200 mg drug + Tris 100 mg, 90 (infinity), n = 3", "value": "41 (33-46) %"}, {"measurement": "% Release, average (range)", "setting": "[1]; 200 mg drug + Tris 100 mg, 15 min, n = 3", "value": "40 (34-43) %"}, {"measurement": "% Release, average (range)", "setting": "[1]; 200 mg drug + Tris 100 mg, 60 min, n = 3", "value": "44 (35-48) %"}, {"measurement": "% Release, average (range)", "setting": "[1]; 200 mg drug + Vit E TPGS 100 mg, 90 (infinity), n = 2", "value": "27 (27-27) %"}, {"measurement": "% Release, average (range)", "setting": "[1]; 200 mg drug + Vit E TPGS 100 mg, 15 min, n = 2", "value": "24 (24-24) %"}, {"measurement": "% Release, average (range)", "setting": "[1]; 200 mg drug + Vit E TPGS 100 mg, 30 min, n = 2", "value": "27 (27-27) %"}, {"measurement": "% Release, average (range)", "setting": "[1]; 200 mg drug + Vit E TPGS 100 mg, 60 min, n = 2", "value": "27 (27-27) %"}, {"measurement": "% Release, average (range)", "setting": "[1]; Drug alone 200 mg, 90 (infinity), n = 2", "value": "1 (1-2) %"}, {"measurement": "% Release, average (range)", "setting": "[1]; Drug alone 200 mg, 15 min, n = 2", "value": "1 (1-1) %"}, {"measurement": "% Release, average (range)", "setting": "[1]; Drug alone 200 mg, 30 min, n = 2", "value": "1 (1-1) %"}, {"measurement": "% Release, average (range)", "setting": "[1]; Drug alone 200 mg, 60 min, n = 2", "value": "1 (1-2) %"}, {"measurement": "% drug release", "setting": "[1]; drug alone, no basifier or surfactant, time not stated", "value": 1, "unit": "%"}, {"measurement": "effectiveness in treating HCV-infected patients", "setting": "HCV infection", "value": "demonstrated effectiveness"}]}
